Reference: patent publication US10774076B2, “Benzazole compounds and methods for making and using the compounds” (Rigel Pharmaceuticals, Inc., priority 2015, dated 2020)

Legend:
[1] = test system: IL23p19; assay: LPS Induced IL23p19 in THP-1 Cells (with IFNγ Primed) Assay; format: cell-based; details: Homo sapiens, IFNγ primed (50 ng/mL), LPS 1 ug/mL, 18 hours, 10 pt, read-out: IL23-p19 ELISA, THP1-IFNy, LPS, 10 pt EC50
Text: LPS Induced IL23p19 in THP-1 Cells (with IFNγ Primed) Assay
THP-1 Cells (ATCC, Cat # TIB-202), Dimethyl Sulfoxide (DMSO) (Sigma-Aldrich, Cat # D2650), RPMI 1640 (Cellgro, Cat #10-040-CM), Fetal Bovine Serum (Sigma, Cat # F4135), Albumin From Bovine Serum (BSA) (Sigma-Aldrich, Cat # A7906), LPS (Serotype K-235, Sigma, Product Number L 2143), IFNγ (Peprotech, Cat #300-02)
Capture antibody: Human IL-23p19 ELISA (e-Bioscience, Cat. #14-7238-85),
Detection antibody: Primary Mouse Biotinylated anti-human IL-12(p40/p70) (e-Bioscience, Cat. #13-7129-85), Secondary HRP-conjugated Streptavidin (R&D Systems, Cat # DY998), 1×PBST Washing Buffer (PBS-Tween tablet) (VWR International, Cat #80058-558), ELISA Blocking Buffer (PBS with 1% BSA), ELISA Dilution Buffer (PBS with 1% BSA), 384 Well Flat-Bottom, MaxiSorp Black Immuno Plates (Thermo Scientific, Cat #12-565-346), 384 Well Flat-Bottom, White Tissue Culture Plates (Thermo Scientific, Cat #12-565-343), Super Signal ELISA Pico Chemiluminescent Substrate (Thermo Scientific, Cat #37070), Cell Titer Glo reagent (Promega, Cat # G7573), Positive control, IKK2VI inhibitor (Calbiochem, Cat #401483), AquaMax 4000 plate washer (Molecular Devices), Luminometer, Wallac Victor2 1420 Multilabel Counter. Method THP-1 Cells Stimulation:
On day 1, 50K/well THP-1 cells were seeded and primed with IFNγ (50 ng/mL) in 384-well plates for about 18 hours in RPMI media with 10% FBS. On day 2, the compound was serially diluted in DMSO from 5 mM in 3-fold dilutions, and then diluted 1:125 in RPMI media with 10% FBS. 50 μL/well 2× compound was added to 50 μL/well THP-1 cells (with IFNγ primed) in duplicate in 384 well tissue culture plates. The cells were pre-incubated with compound for 1 hour at 37° C., 5% CO2 before addition of 10 μL/well 11×LPS to give a final concentration of 1 ug/mL LPS. Day 3, after stimulation for 18 hours at 37° C., 5% CO2, the assay plate was centrifuged and 70 μL/well supernatant was harvested. IL-23p19 protein in 70 μL/well of supernatant was measured by sandwich ELISA, and 25 μl/well Cell Titer Glo reagent was added to the remaining cells to measure compound toxicity.
Human IL-23p19 Sandwich ELISA:
Maxisorp immuno ELISA plates were pre-coated with 25 μL/well of anti-IL-23p19 capture antibody (2.5 ug/mL) in PBS overnight at room temperature. After washing with 1×PBST, the plates were blocked using 100 μL/well of 1% BSA in PBS for 2 hours at room temperature. The plates were washed three times with 1×PBST and 70 μL/well supernatant were added. The plates were incubated at room temperature for 2 hours with shaking and washed three times with 1×PBST. 25 μL/well of biotin labeled anti-IL-12(p40/p70) detection antibody (100 ng/mL) in PBS with 1% BSA was added and the plates were incubated at room temperature for 2 hours with shaking. After washing three times with 1×PBST, 25 μL/well of streptavidin-HRP (1:200) in PBS with 1% BSA was added and the plates were incubated at room temperature for 20 minutes with shaking. The plates were washed three times with 1×PBST and 25 μL/well of Super Signal ELISA Pico Chemiluminescent Substrate were added. The plates were read with a luminometer, and the chemiluminescence values were entered into Athena (Rigel) for curve fitting, EC50 calculation, and database storage.

[2] = test system: IL23-p19; assay: Compound screening using DC cells: LPS-induced IL-23 (p19/p40) ELISA in IFNγ-primed dendritic cells differentiated from human PBMC; format: cell-based; details: Dendritic cell, human PBMC-derived dendritic cells, LPS 1 μg/ml, 18 hours, 10 pt
Protocol: Compound Screening Using DC Cells
Human PBMC cells (400 million) obtained from the vendor were transferred into a T-175 flask containing 15 ml RPMI media (10% FBS) and incubate for 2 hours at 37° C. After 2 hours, the media including floating cells was aspirated out carefully and 12 ml of fresh RPMI media (10% FBS) containing GMCSF (100 ng/ml) and IL4 (20 ng/ml) was added, and the flask was kept in a 37° C. incubator for 7 days.
After 3 days, fresh GMCSF (100 ng/ml) and IL4 (20 ng/ml) were added to the flask and the incubation continued. After 7 days, the fully differentiated cells were harvested by spinning down (1200 rpm/5 min) and aspirating the media. The cells were suspended in fresh RPMI media (10% FBS) containing 50 ng/ml IFNγ (1000 U/ml) and then plated (50K/well in 100 μl) onto a white clear bottom 96 well plate and left in a 37° C. incubator for 24 hours.
After 24 hours incubation, 100 μl of RPMI media was added containing 2× concentrated test compound per well to the above cell-culture media (final concentration becomes 1×) and the plates were pre-incubated for 1 hour at 37° C. before stimulating with LPS.
After 1 hour compound pre-incubation, 10 μl per well of 20× concentrated LPS solution in RPMI media was added to give a final concentration of 1 μg/ml. The mixture was shaken and incubated the plates at 37° C. for an additional 18 hours.
155 μl of the supernatant was harvested from each well carefully (without the tip touching the bottom of the well) and to the remaining 50 μl/well of the cell culture plate was added 50 μl of Cell Titer Glo reagent. The mixture was incubated for 1-2 minutes on a shaker and the plate was read for luminescence intensity to determine the compound cytotoxicity. The cell culture supernatant collected above was used to carry out IL23 ELISA (65 μl—Supernatant) and IL10 ELISA (90 μl—Supernatant) as described below.
Human IL-23 (p19/p40) ELISA Protocol (e-Biosciences)
To 10.5 ml PBS add 50 μl of anti-IL23 (p19) was added capture antibody (2.5 μg/ml). The mixture was mixed well and 100 μl of the coating solution was added to each well of the 96 well white plates from Pierce. The wells were covered and incubated overnight at 4° C.
The anti-IL23 (p19)-antibody-coated plates were washed 2× using TBST (use plate washer) and blocked using 200 μl of 0.5% Casein for 1.5-2 hours at room temperature with shaking.
The plates were washed 2× using TBST and the supernatant was transferred (65 μl/well) to the above pre-blocked/IL23(p19)-antibody-coated 96 well plate, and incubated at room temperature for 1.5 hours with shaking.
The plates were washed 4× using TBST (plate washer) and 100 μl/well detection antibody solution prepared from 2 μl of biotin labeled anti-IL-12 (p40/p70) antibody in 11 ml 1% BSA/PBS solution (I-5000 dilution) was added. The plates were incubated for 1 hour with shaking at Room temperature.
Again, the plates were washed 4× with TBST and 100 μl of HRP labeled Streptavidin (R&D Systems) solution (10 μl/10 ml 1% BSA solution) was added, and the plates were incubated at room temperature for another 45 minutes with shaking.
After 45 minutes, the plates were washed with TBST 4× and 100 ul/well Super Signal ELISA Pico Chemiluminescent Substrate from Pierce (3.5 ml A+3.5 ml B+3.5 ml MQ water) was added. The plates were shaken for 1-2 minutes then read on a plate reader.

Compound | EC50 [1] | EC50 [2]
Cc1cc(-c2nc(C(=O)Nc3cc4oc(N5CCCCC5)nc4cc3N3CCCCC3)cs2)ccn1 [Compound I-37, N-(2,5-di(piperidin-1-yl)benzo[d]oxazol-6-yl)-2-(2-methylpyridin-4-yl)thiazole-4-carboxamide] | 23.1 µM | 
O=C(Nc1cc2oc(N3CCCCC3)nc2cc1N1CCCCC1)c1ccc(-c2cc[nH]n2)o1 [Compound I-32, N-(2,5-di(piperidin-1-yl)benzo[d]oxazol-6-yl)-5-(1H-pyrazol-3-yl)furan-2-carboxamide] | 1.78 µM | 24.1 µM
CN(CCN1CCOCC1)c1nc2cc(N3CCCCC3)c(NC(=O)c3ccc(-c4cn[nH]c4)o3)cc2o1 [Compound I-53, N-(2-(methyl(2-morpholinoethyl)amino)-5-(piperidin-1-yl)benzo[d]oxazol-6-yl)-5-(1H-pyrazol-4-yl)furan-2-carboxamide] | 0.18 µM | 0.121 µM
CN1CCN(c2nc3cc(N4CCCCC4)c(NC(=O)c4csc(-c5cc[nH]n5)n4)cc3o2)CC1 [Compound I-21, N-(2-(4-methylpiperazin-1-yl)-5-(piperidin-1-yl)benzo[d]oxazol-6-yl)-2-(1H-pyrazol-3-yl)thiazole-4-carboxamide] | 2.18 µM | 1.71 µM
Cc1cc(-c2ccc(C(=O)Nc3cc4oc(N5CCOCC5)nc4cc3N3CCC(F)CC3)o2)ccn1 [Compound I-24, N-(5-(4-fluoropiperidin-1-yl)-2-morpholinobenzo[d]oxazol-6-yl)-5-(2-methylpyridin-4-yl)furan-2-carboxamide] | 1.08 µM | 5.77 µM
O=C(Nc1cc2oc(N3CCOCC3)nc2cc1N1CCCCC1)c1csc(-c2cc[nH]n2)n1 [Compound I-13, N-(2-morpholino-5-(piperidin-1-yl)benzo[d]oxazol-6-yl)-2-(1H-pyrazol-3-yl)thiazole-4-carboxamide] | 2.93 µM | 
O=C(Nc1cc2oc(N3CCOCC3)nc2cc1N1CCC(F)CC1)c1ccc(-c2cn[nH]c2)o1 [Compound I-23, N-(5-(4-fluoropiperidin-1-yl)-2-morpholinobenzo[d]oxazol-6-yl)-5-(1H-pyrazol-4-yl)furan-2-carboxamide] | 0.0757 µM | 0.157 µM
O=C(Nc1cc2oc(N3CCOCC3)nc2cc1N1CCOCC1)c1ccc(-c2cn[nH]c2)o1 [Compound I-48, N-(2,5-dimorpholinobenzo[d]oxazol-6-yl)-5-(1H-pyrazol-4-yl)furan-2-carboxamide] | 0.0585 µM | 0.123 µM
Cc1cc(-c2nc(C(=O)Nc3cc4oc(N5CCOCC5)nc4cc3N3CCCC(F)C3)cs2)ccn1 (stereo not shown) [Compound I-41, N-(5-(3-fluoropiperidin-1-yl)-2-morpholinobenzo[d]oxazol-6-yl)-2-(2-methylpyridin-4-yl)thiazole-4-carboxamide] | 0.147 µM | 2.58 µM
O=C(Nc1cc2oc(N3CCCCC3)nc2cc1N1CCCCC1)c1csc(-c2cn[nH]c2)n1 [Compound I-35, N-(2,5-di(piperidin-1-yl)benzo[d]oxazol-6-yl)-2-(1H-pyrazol-4-yl)thiazole-4-carboxamide] | 0.321 µM | 0.666 µM
Cc1cc(-c2nc(C(=O)Nc3cc4oc(N5CCOCC5)nc4cc3N3CCC(F)CC3)cs2)ccn1 [Compound I-26, N-(5-(4-fluoropiperidin-1-yl)-2-morpholinobenzo[d]oxazol-6-yl)-2-(2-methylpyridin-4-yl)thiazole-4-carboxamide] | 1.18 µM | 
Nc1ccc(-c2nc(C(=O)Nc3cc4oc(N5CCOCC5)nc4cc3N3CCCCC3)cs2)cn1 [Compound I-11, 2-(6-aminopyridin-3-yl)-N-(2-morpholino-5-(piperidin-1-yl)benzo[d]oxazol-6-yl)thiazole-4-carboxamide] | 228 µM | 
Cc1cc(-c2nc(C(=O)Nc3cc4oc(N5CCOCC5)nc4cc3N3CCC(F)(F)CC3)cs2)ccn1 [Compound I-30, N-(5-(4,4-difluoropiperidin-1-yl)-2-morpholinobenzo[d]oxazol-6-yl)-2-(2-methylpyridin-4-yl)thiazole-4-carboxamide] | 43.5 µM | 
O=C(Nc1cc2sc(N3CCOCC3)nc2cc1N1CCCCC1)c1ccc(-c2cc[nH]n2)o1 [Compound I-8, N-(2-morpholino-5-(piperidin-1-yl)benzo[d]thiazol-6-yl)-5-(1H-pyrazol-3-yl)furan-2-carboxamide] | 0.614 µM | 
Nc1ccc(-c2nc(C(=O)Nc3cc4oc(N5CCCCC5)nc4cc3N3CCCCC3)cs2)cn1 [Compound I-34, 2-(6-aminopyridin-3-yl)-N-(2,5-di(piperidin-1-yl)benzo[d]oxazol-6-yl)thiazole-4-carboxamide] | 8.32 µM | 
O=C(Nc1cc2oc(N3CCCCC3)nc2cc1N1CCCCC1)c1csc(-c2cc[nH]n2)n1 [Compound I-36, N-(2,5-di(piperidin-1-yl)benzo[d]oxazol-6-yl)-2-(1H-pyrazol-3-yl)thiazole-4-carboxamide] | 5.24 µM | 
Cc1cc(-c2ccc(C(=O)Nc3cc4oc(N5CCCCC5)nc4cc3N3CCCCC3)o2)ccn1 [Compound I-33, N-(2,5-di(piperidin-1-yl)benzo[d]oxazol-6-yl)-5-(2-methylpyridin-4-yl)furan-2-carboxamide] | 4450 µM | 
